Experiments:
[1] = biological target: PolQ ATPase enzyme (1-894) (Homo sapiens (Human), UniProt O75417); assay: Polθ ATPase enzymatic assay (0.5 nM enzyme concentration), ADP-Glo; format: biochemical; settings: 0.5 nM PolQ ATPase enzyme (1-894); average IC50
In short: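 Human PolQ ATPase domain (1-894), 0.5 nM, preincubated 15 min at rt with 10-point inhibitor series in 50 mM Tris pH 7.5, 10% glycerol, 5 mM DTT, 10 mM MgCl2, 0.1 mg/ml BSA.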

[2] = biological target: T1, CYP3A4 (Homo sapiens (Human), UniProt P08684); assay: Reversible CYP inhibition in human liver microsomes (midazolam); format: in vitro ADME
Experimental: A seven-point semi-log dilution of each test compound (up to 30 μM) or positive control inhibitors for CYP2C9 (up to 1000 nM sulphenazole), CYP2D6 (up to 500 nM quinidine) and CYP3A4 (up to 250 nM ketoconazole) were dissolved in DMSO and added to the incubation plate using a Tecan 300 (normalized for 0.3% DMSO content). Final reaction conditions were: human liver microsomes (0.1 mg/mL), potassium phosphate buffer 100 mM pH 7.4, 1 mM magnesium chloride, 5 μM diclofenac, 5 μM dextromethorphan and 2.5 μM midazolam. After a pre-incubation at 37° C. The reaction was started with the addition of NADPH solution at the final concentration of 1 mM and carried out at 37° C. for 5 minutes. The reaction was stopped by the addition of 1 volume of cold acetonitrile with internal standard (labetalol) to the incubation plate. The incubation plate was centrifuged at 3000 rpm for 10 minutes to precipitate proteins, and the supernatant was analyzed by LC-MS/MS. Metabolite area ratio (4-OH-diclofenac, dextrorphan and 1-OH-midazolam) versus ISTD area ratio was used as the quantitative signal. Data were analyzed using the plot log of concentration (x-axis) versus the percentage of inhibition (y axis) and the IC50, Hill Slope and R^2 were determined.

[3] = biological target: PXR nuclear receptor (Homo sapiens (Human), UniProt O75469); assay: PXR activation luciferase reporter assay; format: cell-based; settings: 0.03-10 μM test compound; for PXR activation (% Max activity): percentage of the response of Rifampicin at 10 μM; for fold induction at 24 h: versus vehicle-treated cells, read-out: PXR activation (Max fold induction)
Experimental: An expression vector harboring a full-length PXR nuclear receptor plus the appropriate enhancers and promoters linked to the luciferase reporter gene were integrated into the tumor cells. Tumor cells transfected with the species-specific nuclear receptor and the corresponding response elements were seeded in a 96-well plate. Twenty-four hours after seeding, the cells were treated with six distinct concentrations (0.03-10 μM) of the test compound. The cells were then returned to the incubator for an additional 24 h. After this incubation period, the number of viable cells/well were determined using Promega's Cell Titer Fluor cytotoxicity assay. At the end of the assay, Promega's ONE-Glo was added to assess the receptor activation by monitoring reporter gene activity, and by comparing the results to vehicle-treated cells. Activation data were normalized to the number of viable cells/well. Results are expressed as a percentage of the response given by Rifampicin, the positive control, at a 10 μM dose.

[4] = biological target: T1, CYP3A4; assay: Time-dependent inhibition (TDI), IC50 shift +/-NADPH, human liver microsomes; format: in vitro ADME; settings: IC50 −NADPH divided by IC50 +NADPH
Experimental: Test compound or positive control inhibitors (CYP2C9: Tienilic acid; CYP2D6: paroxetine; CYP3A4: mifepristone) were dissolved in DMSO and a semi-log dilution (up to 50.0 μM) was prepared to 2 incubation plates and normalized for a final DMSO content of 0.5%. Human liver microsomes were diluted at 1 mg/mL with 100 mM potassium phosphate buffer pH 7.4 (1 mM MgCl2) and added to both incubation plates. After pre-incubation at 37° C., the reaction was started with the addition of NADPH (+NADPH condition) or with water (−NADPH condition). Plates were incubated for 30 min and 8 μL were transferred to a second incubation plate containing 72 μL of 1 mM NADPH, 20 μM diclofenac (CYP2C9), 20 μM dextromethorphan (CYP2D6) and 10 μM midazolam (CYP3A4) in 100 mM potassium phosphate buffer pH 7.4 (1 mM MgCl2). Plates were incubated for 10 min and the reaction was stopped by the addition of cold acetonitrile containing internal standard (1:1 v/v). […] Metabolite area ratio (4-OH-diclofenac, dextrorphan and 1-OH-midazolam) versus internal standard area ratio was used as the quantitative signal. Data were analyzed using the plot log of concentration (x axis) versus the percentage of inhibition (y axis) and IC50. Hill Slope and R^2 were determined. The IC50 shift was then calculated by dividing the IC50-NADPH condition by the IC50 obtained in the +NADPH condition.

[5] = Liver microsomal stability assay; format: in vitro ADME; settings: pH 7.4; human liver microsomes, 1 μM compound
Experimental: Liver microsomes were thawed on ice prior to use. The incubation mixtures were prepared in 96-well plates and contained test compound or control (1 μM), liver microsomes (0.5 mg of microsomal protein/mL), MgCl2 (5 mM), phosphate buffer (100 mM, pH 7.4), 0.01% DMSO and 1% acetonitrile. A T=0 aliquot was withdrawn after 10 min pre-incubation at 37° C. on a shaker. Reactions were initiated by the addition of NADPH (final concentration of 1 mM) and the plate was kept on a shaker at 37° C., further samples were withdrawn at 5, 15, 30, and 60 minutes. At each timepoint, the reactions were immediately terminated by adding of ice-cold acetonitrile containing internal standard to the withdrawn sample. The extracted samples were centrifuged for 10 minutes at 3200 rpm to pellet the precipitated microsomal protein, and the supernatant was combined 1:1 with water and analyzed by LC-MS/MS. Using the T=0 peak area ratio as 100%, the percentage of parent compound remaining was calculated. For each compound, the In percentage remaining versus incubation time was plotted and the slope of this linear regression (−k) was converted to an in vitro T1/2 value and CLint using the equations below.

Chain of PolQ ATPase enzyme (1-894) (O75417 1-894): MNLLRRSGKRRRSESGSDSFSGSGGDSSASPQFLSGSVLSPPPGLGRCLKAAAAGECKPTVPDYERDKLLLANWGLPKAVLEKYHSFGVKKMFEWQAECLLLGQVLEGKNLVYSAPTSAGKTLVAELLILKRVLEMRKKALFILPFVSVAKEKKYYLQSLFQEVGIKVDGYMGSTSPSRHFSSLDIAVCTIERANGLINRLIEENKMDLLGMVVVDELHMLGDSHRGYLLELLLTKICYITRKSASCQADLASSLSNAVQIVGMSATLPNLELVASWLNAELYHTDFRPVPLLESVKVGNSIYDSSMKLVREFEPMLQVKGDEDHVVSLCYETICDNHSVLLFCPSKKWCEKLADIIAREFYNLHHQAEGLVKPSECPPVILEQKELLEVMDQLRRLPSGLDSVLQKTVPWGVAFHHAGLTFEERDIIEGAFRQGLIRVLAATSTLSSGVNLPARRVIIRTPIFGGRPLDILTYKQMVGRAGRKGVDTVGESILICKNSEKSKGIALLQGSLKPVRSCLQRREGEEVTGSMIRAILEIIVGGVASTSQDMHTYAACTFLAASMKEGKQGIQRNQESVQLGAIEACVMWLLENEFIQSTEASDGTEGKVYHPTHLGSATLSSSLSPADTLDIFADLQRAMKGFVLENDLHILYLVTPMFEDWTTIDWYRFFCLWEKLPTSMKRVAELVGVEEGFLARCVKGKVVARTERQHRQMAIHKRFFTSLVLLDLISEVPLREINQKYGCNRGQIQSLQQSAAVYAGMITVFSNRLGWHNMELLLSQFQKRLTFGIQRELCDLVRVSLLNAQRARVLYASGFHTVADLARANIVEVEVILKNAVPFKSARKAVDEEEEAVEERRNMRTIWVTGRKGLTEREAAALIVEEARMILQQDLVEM
Chain of PXR nuclear receptor (O75469 whole entry): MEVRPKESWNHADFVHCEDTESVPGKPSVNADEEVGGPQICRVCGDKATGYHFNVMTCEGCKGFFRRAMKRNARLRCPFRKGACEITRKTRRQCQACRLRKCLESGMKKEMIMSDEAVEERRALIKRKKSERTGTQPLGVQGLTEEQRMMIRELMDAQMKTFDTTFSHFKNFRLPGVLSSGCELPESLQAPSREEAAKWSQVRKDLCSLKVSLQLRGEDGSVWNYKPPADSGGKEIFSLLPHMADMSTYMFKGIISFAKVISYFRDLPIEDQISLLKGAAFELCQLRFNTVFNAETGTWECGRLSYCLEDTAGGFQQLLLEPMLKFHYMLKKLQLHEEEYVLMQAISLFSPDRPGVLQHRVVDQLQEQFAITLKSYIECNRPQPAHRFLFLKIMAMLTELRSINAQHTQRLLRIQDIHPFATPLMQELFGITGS
T1 sequence (P08684 whole entry): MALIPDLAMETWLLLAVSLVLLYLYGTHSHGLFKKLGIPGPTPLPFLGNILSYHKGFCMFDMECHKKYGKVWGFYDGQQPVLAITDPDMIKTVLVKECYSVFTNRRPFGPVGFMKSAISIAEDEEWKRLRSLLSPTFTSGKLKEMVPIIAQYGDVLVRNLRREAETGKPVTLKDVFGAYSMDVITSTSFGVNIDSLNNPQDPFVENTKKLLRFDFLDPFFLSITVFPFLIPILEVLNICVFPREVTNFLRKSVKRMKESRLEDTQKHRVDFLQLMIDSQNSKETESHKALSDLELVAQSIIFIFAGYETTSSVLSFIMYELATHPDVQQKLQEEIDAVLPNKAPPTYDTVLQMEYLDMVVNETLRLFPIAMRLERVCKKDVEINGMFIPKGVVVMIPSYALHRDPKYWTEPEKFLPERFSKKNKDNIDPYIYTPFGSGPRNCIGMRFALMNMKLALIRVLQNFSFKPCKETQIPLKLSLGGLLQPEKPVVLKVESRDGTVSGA

| SMILES | IC50 [1] [nM] | other results |
| --- | --- | --- |
| COc1ccc(F)cc1-c1cnccc1C(=O)Nc1nnc(C#Cc2ccc(C#N)cc2)s1 [Compound 473] | 3.5 | IC50 [2]: 1110 nM; PXR activation (% Max activity) [3]: 2.0%; fold induction at 24 h [3]: 1.3; Time-dependent CYP3A4 inhibition-shift after 30 min with NADPH [4]: 1x; microsomal CLint at 1 μM [5]: 46.4 µL/min/mg |
| COc1cnc(Cl)cc1-c1cnccc1C(=O)Nc1nnc(C#CC2CC2)s1 | – | IC50 [2]: > 30000 nM; PXR activation (% Max activity) [3]: 5.0%; fold induction at 24 h [3]: 1.8; Time-dependent CYP3A4 inhibition-shift after 30 min with NADPH [4]: 1x; microsomal CLint at 1 μM [5]: < 7.7 µL/min/mg |
| COc1cnc(C(F)F)cc1-c1cc(C#CC2(N)CC2)ncc1C(=O)Nc1nnc(C#CC2CC2)s1 [Compound 554] | < 0.25 | – |
| COc1cnc(C(F)F)cc1-c1cc(-n2ccc(OC3COC3)cc2=O)ncc1C(=O)Nc1nnc(C#CC2CC2)s1 [Compound 610] | 0.27 | – |
| CC#C[C@H]1CC1c1nnc(NC(=O)c2cnc(-n3ccc(C)cc3=O)cc2-c2cc(C(F)F)ncc2OC)s1 (mixture of isomers) [Compound 637] | < 0.25 | – |
| COc1cnc(C(F)F)cc1-c1cc(-n2ccc(C)cc2=O)ncc1C(=O)Nc1nnc(C(C)(C)OC)s1 [Compound 576] | 29 | – |
| COc1cnc(C(F)F)cc1-c1cc(C#CC2CCCN(C)C2)ncc1C(=O)Nc1nnc(C#CC2CC2)s1 (racemic) [Compound 556] | 1.8 | – |
| COc1cnc(C(F)F)cc1-c1cc(C#CCC(C)(C)O)ncc1C(=O)Nc1nnc([C@H]2C[C@@H]2c2ccn(C)n2)s1 (racemic) [Compound 622] | 1.4 | – |
| COc1ccc(C(F)(F)F)cc1-c1cnccc1C(=O)Nc1nnc(C2C[C@H]2c2ccc(C#N)cc2)s1 (some centres unmarked) [Compound 30] | 0.76 | – |
| COc1cnc(C(F)F)cc1-c1cc(N2CCN(CC#N)C3(CC3)C2=O)ncc1C(=O)Nc1nnc(C#CC2CC2)s1 [Compound 508] | 1.2 | – |
| Cc1nnc(Cn2cc(-c3cc(C(F)F)ccc3Cl)c(C(=O)Nc3nc(C)c(C#CC4CC4)s3)cc2=O)o1 [Compound 199] | 5.8 | – |
| COc1cnc(C(F)F)cc1-c1cc(-n2ccc(C)cc2=O)ncc1C(=O)Nc1nnc([C@H]2C[C@@H]2c2ccnn2C)s1 (racemic) [Compound 582] | 1.3 | – |
| C#Cc1nnc(NC(=O)c2cnc(-n3ccc(C)cc3=O)cc2-c2cc(C(F)F)ncc2OC)s1 [Compound 518] | 1.4 | – |
| C#C[C@H]1C[C@@H]1c1nnc(NC(=O)c2cnc(-n3cccc(Cl)c3=O)cc2-c2cc(C(F)F)ncc2OC)s1 [Compound 591] | < 0.25 | – |
